Laboratory results from ChEMBL document CHEMBL4261534, “Synthesis, α-glucosidase inhibition and molecular docking studies of novel thiazolidine-2,4-dione or rhodanine derivatives” (Medchemcomm, 2017).

Molecular target: alpha-glucosidase (Saccharomyces cerevisiae)
Test: Inhibition of alpha-glucosidase (unknown origin) using p-nitrophenyl alpha-D-glucopyranoside as substrate preincubated for 15 mins followed by substrate addition measured after 30 mins by spectrophotometric method

Row | IC50 [µM] | Compound
1 | > 100 | O=C1NC(=S)S/C1=C\c1ccccc1OCN1C(=O)c2ccccc2C1=O
2 | 50.45 | O=C1NC(=O)/C(=C/c2cc([N+](=O)[O-])ccc2OCN2C(=O)c3ccccc3C2=O)S1
3 | 6.59 | O=C1NC(=S)S/C1=C\c1ccc(OCN2C(=O)c3ccccc3C2=O)c([N+](=O)[O-])c1
4 | 35.79 | O=C1NC(=S)S/C1=C\c1cc([N+](=O)[O-])ccc1OCN1C(=O)c2ccccc2C1=O
5 | 35.14 | COc1cc(/C=C2\SC(=O)NC2=O)ccc1OCN1C(=O)c2ccccc2C1=O
6 | > 100 | O=C1NC(=O)/C(=C/c2ccccc2OCN2C(=O)c3ccccc3C2=O)S1
7 | > 100 | O=C1NC(=O)/C(=C/c2cccc(OCN3C(=O)c4ccccc4C3=O)c2)S1
8 | > 100 | O=C1NC(=O)/C(=C/c2cc(Cl)ccc2OCN2C(=O)c3ccccc3C2=O)S1
9 | > 100 | COc1cc(/C=C2\SC(=O)NC2=O)cc(OC)c1OCN1C(=O)c2ccccc2C1=O
10 | 34.82 | O=C1NC(=S)S/C1=C\c1cc(Cl)ccc1OCN1C(=O)c2ccccc2C1=O
11 | 33.98 | O=C1NC(=S)S/C1=C\c1cccc(OCN2C(=O)c3ccccc3C2=O)c1
12 | 39.81 | COc1cc(/C=C2\SC(=S)NC2=O)cc(OC)c1OCN1C(=O)c2ccccc2C1=O
13 | 16.11 | COc1cc(/C=C2\SC(=S)NC2=O)ccc1OCN1C(=O)c2ccccc2C1=O
14 | > 100 | COc1cccc(/C=C2\SC(=S)NC2=O)c1OCN1C(=O)c2ccccc2C1=O
15 | 29.26 | CCOc1cc(/C=C2\SC(=O)NC2=O)ccc1OCN1C(=O)c2ccccc2C1=O
16 | 7.91 | O=C1NC(=S)S/C1=C\c1ccc(OCN2C(=O)c3ccccc3C2=O)cc1
17 | 25.6 | O=C1NC(=O)/C(=C/c2ccc(OCN3C(=O)c4ccccc4C3=O)cc2)S1
18 | 7.72 | CCOc1cc(/C=C2\SC(=S)NC2=O)ccc1OCN1C(=O)c2ccccc2C1=O
19 | 5.44 | O=C1NC(=S)S/C1=C\c1ccc(OCN2C(=O)c3ccccc3C2=O)c(Cl)c1
20 | 22.48 | O=C1NC(=O)/C(=C/c2ccc(OCN3C(=O)c4ccccc4C3=O)c([N+](=O)[O-])c2)S1
21 | 20.95 | O=C1NC(=O)/C(=C/c2ccc(OCN3C(=O)c4ccccc4C3=O)c(Cl)c2)S1
22 | > 100 | COc1cccc(/C=C2\SC(=O)NC2=O)c1OCN1C(=O)c2ccccc2C1=O
